Assay results published in US20050090522A1 (priority 2001, published 2005).
pEC50: −log10 of the molar value.

test system: HIV-1; assay: HIV-1 single-round infectious luciferase reporter virus (pseudotype) assay in HeLa CD4 CCR5 cells; format: cell-based; details: Human immunodeficiency virus 1, HeLa-CD4/CCR5, read-out: Average % inhibition at 10 μM
Procedure, shortened: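 Reporter pseudovirus produced in 293 cells infected HeLa cells expressing CD4/CCR5 at MOI ~0.01, with compound present at <10 μM final. Infection was quantified as luciferase luminescence after 72 h.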

SMILES	inhibition at 10 µM [%]
C[C@@H]1CN(C(=O)c2ccccc2)CCN1C(=O)C(=O)c1c[nH]c2c(-c3ccc(F)cc3)nccc12 [Example 1, 1-benzoyl-3-(R)-methyl-4-[(7-(4-fluorophenyl)-6-azaindol-3-yl)-oxoacetyl]-piperazine]	56

same assay, conditions: Human immunodeficiency virus 1, HeLa-CD4/CCR5, read-out: EC50 Group from TABLE 1, HeLa CD4 CCR5 cells, single-round infectious luciferase reporter virus

SMILES	pEC50
COc1cnc(-c2cnc(O)cn2)c2[nH]cc(C(=O)C(=O)N3CCN(C(=O)c4ccccc4)CC3)c12 [Example 97, 1-(benzoyl)-4-[(4-methoxy-7-(2-hydroxyl-pyrazin-5-yl)-6-azaindol-3-yl)-oxoacetyl]piperazine]	> 6.00
C[C@@H]1CN(C(=O)c2ccccc2)CCN1C(=O)C(=O)c1c[nH]c2c(-c3ccc(O)cn3)nccc12 [Example 124]	> 6.00
O=C(C(=O)N1CCN(C(=O)c2ccc(Br)o2)CC1)c1c[nH]c2c(-c3ncon3)ncc(F)c12 [Example 167]	> 6.00
COc1cnc(-c2cnc(N(C)C)cn2)c2[nH]cc(C(=O)C(=O)N3CCN(C(=O)c4ccccc4)CC3)c12 [Example 72, 1-(benzoyl)-4-[(4-methoxy-7-(2-dimethylamino-pyrazin-5-yl)-6-azaindol-3-yl)-oxoacetyl]piperazine]	> 6.00
COc1cnc(-c2ccc(C=O)s2)c2[nH]cc(C(=O)C(=O)N3CCN(C(=O)c4ccccc4)CC3)c12 [Example 84, 1-benzoyl-4-[(4-methoxy-7-(5-carbonyl-thiophen-2-yl)-6-azaindol-3-yl)-oxoacetyl]piperazine]	> 6.00
COc1cnc(-n2ccc(CN3CCS(=O)(=O)CC3)n2)c2[nH]cc(C(=O)C(=O)N3CCN(C(=O)c4ccccc4)CC3)c12 [Example 280, 1-benzoyl-4-[(4-methoxy-7-(3-(1,1-dioxo-thiomorpholin-4-yl)methyl-pyrazol-1-yl)-6-azaindol-3-yl)-oxoacetyl]piperazine]	> 6.00
COc1cnc(-c2nc(-c3csc(C)n3)n[nH]2)c2[nH]cc(C(=O)C(=O)N3CCN(C(=O)c4ccccc4)[C@H](C)C3)c12 [Example 341]	> 6.00
C[C@@H]1CN(C(=O)c2ccccc2)CCN1C(=O)C(=O)c1c[nH]c2c(-c3ccc(C(=O)O)cc3)nccc12 [Example 164]	> 6.00
COc1cnc(-c2ccc(C=O)o2)c2[nH]cc(C(=O)C(=O)N3CCN(C(=O)c4ccccc4)CC3)c12 [Example 85, 1-(benzoyl)-4-[(4-methoxy-7-(5-carbonyl-furan-2-yl)-6-azaindol-3-yl)-oxoacetyl]piperazine]	> 6.00
C[C@@H]1CN(C(=O)c2ccccc2)CCN1C(=O)C(=O)c1c[nH]c2c(-c3ccc(N)nc3)nccc12 [Example 113, (R)-1-benzoyl-3-methyl-4-[(7-(2-amino-pyridin-5-yl)-6-azaindol-3-yl)-oxoacetyl]piperazine]	> 6.00
O=C(C(=O)N1CCN(C(=O)c2ccccc2)CC1)c1c[nH]c2c(-c3ccnnc3)ncc(F)c12 [Example 30, 1-benzoyl-4-[(4-fluoro-7-(pyridazin-4-yl)-6-azaindol-3-yl)-oxoacetyl]piperazine]	> 6.00
COc1cnc(-c2cc3ccccc3o2)c2[nH]cc(C(=O)C(=O)N3CCN(C(=O)c4ccccc4)CC3)c12 [Example 98]	> 6.00
COc1cnc(-n2ccc(C(C)C)n2)c2[nH]cc(C(=O)C(=O)N3CCN(C(=O)c4ccccc4)CC3)c12 [Example 249, 1-benzoyl-4-[(4-methoxy-7-(3-iso-propyl-pyrazol-1-yl)-6-azaindol-3-yl)-oxoacetyl]piperazine]	> 6.00
COc1cnc(-c2cnc(N(C)CCN(C)C)cn2)c2[nH]cc(C(=O)C(=O)N3CCN(C(=O)c4ccccc4)CC3)c12 [Example 176, 1-benzoyl-4-[(4-methoxy-7-(2-(N-dimethylaminoethyl-N-methyl)aminopyrazin-S-yl)-6-azaindol-3-yl)-oxoacetyl]piperazine]	> 6.00
CNc1ncc(-c2ncc(OC)c3c(C(=O)C(=O)N4CCN(C(=O)c5ccccc5)CC4)c[nH]c23)nc1OC [Example 100, 1-benzoyl-4-[(4-methoxy-7-(2-methylamino-3-methoxy-pyrazin-5-yl)-6-azaindol-3-yl)-oxoacetyl]piperazine]	> 6.00
COc1cnc(-c2cccc(C)n2)c2[nH]cc(C(=O)C(=O)N3CCN(C(=O)c4ccccc4)CC3)c12 [Example 76, 1-benzoyl-4-[(4-methoxy-7-(2-methyl-pyridin-6-yl)-6-azaindol-3-yl)-oxoacetyl]piperazine]	> 6.00
C[C@@H]1CN(C(=O)c2ccccn2)CCN1C(=O)C(=O)c1c[nH]c2c(-c3cnc(N(C)C)cn3)nccc12 [Example 105, (R)-1-picolinoyl-3-methyl-4-[(7-(2-dimethylamino-pyrazin-5-yl)-6-azaindol-3-yl)-oxoacetyl]piperazine]	> 6.00
COc1ncc(-c2ncc(OC)c3c(C(=O)C(=O)N4CCN(C(=O)c5ccccc5)CC4)c[nH]c23)cn1 [Example 117, 1-benzoyl-4-[(4-methoxy-7-(2-methoxy-pyrmdin-5-yl)-6-azaindol-3-yl)-oxoacetyl]piperazine]	> 6.00
COc1cnc(-n2nccc2C)c2[nH]cc(C(=O)C(=O)N3CCN(C(=O)c4ccccc4)CC3)c12 [Example 240, 1-benzoyl-4-[(4-methoxy-7-(5-methyl-pyrazol-1-yl)-6-azaindol-3-yl)-oxoacetyl]piperazine]	> 6.00
COC(=O)c1ccc(-c2ccn(-c3ncc(OC)c4c(C(=O)C(=O)N5CCN(C(=O)c6ccccc6)CC5)c[nH]c34)n2)cc1 [Example 293, 1-benzoyl-4-[(4-methoxy-7-(3-(4-methoxycarbonylphenyl)-pyrazol-1-yl)-6-azaindol-3-yl)-oxoacetyl]piperazine]	> 6.00
C[C@@H]1CN(C(=O)c2ccccc2)CCN1C(=O)C(=O)c1c[nH]c2c(-c3ccc(F)cc3)nccc12 [Example 1, 1-benzoyl-3-(R)-methyl-4-[(7-(4-fluorophenyl)-6-azaindol-3-yl)-oxoacetyl]-piperazine]	> 6.00
COc1cnc(-c2ncc(OC)c3c(C(=O)C(=O)N4CCN(C(=O)c5ccccn5)CC4)c[nH]c23)cn1 [Example 182, 1-picolinoyl-4-[(4-methoxy-7-(2-methoxy-pyrazin-5-yl)-6-azaindol-3-yl)-oxoacetyl]piperazine]	> 6.00
O=C(C(=O)N1CCN(C(=O)c2ccccc2)CC1)c1c[nH]c2c(-c3ccncc3)nccc12 [Example 10, 1-(benzoyl)-4-[(7-(pyridin-4-yl)-6-azaindol-3-yl)-oxoacetyl]piperazine]	> 6.00
COc1cnc(-c2cc3ccncc3o2)c2[nH]cc(C(=O)C(=O)N3CCN(C(=O)c4ccccc4)CC3)c12 [Example 104, 1-benzoyl-4-[(4-methoxy-7-(6-aza-benzofuran-2-yl)-6-azaindol-3-yl)-oxoacetyl]piperazine]	> 6.00
COc1cnc(-c2cccnn2)c2[nH]cc(C(=O)C(=O)N3CCN(C(=O)c4ccccc4)CC3)c12 [Example 120, 1-benzoyl-4-[(4-methoxy-7-(pyridazin-3-yl)-6-azaindol-3-yl)-oxoacetyl]piperazine]	> 6.00

same assay, conditions: Human immunodeficiency virus 1, HeLa-CD4/CCR5, read-out: EC50 Group from Table 1, Table 2-1; HeLa CD4 CCR5 cells, single-round luciferase reporter virus

SMILES	pEC50
COc1cnc(-c2ccc(S(C)(=O)=O)cc2)c2[nH]cc(C(=O)C(=O)N3CCN(C(=O)c4ccccn4)[C@H](C)C3)c12 [Example 268]	> 6.00
COc1cnc(-n2ccc(C(C)n3cncn3)n2)c2[nH]cc(C(=O)C(=O)N3CCN(C(=O)c4ccccc4)[C@H](C)C3)c12 (some centres unmarked) [Example 265]	> 6.00
COc1cnc(-c2nc(-c3csc(C)n3)n[nH]2)c2[nH]cc(C(=O)C(=O)N3CCN(C(=O)c4ccccc4)[C@H](C)C3)c12 [Example 341]	> 6.00
COc1cnc(-n2ccc(CN(C)C)n2)c2[nH]cc(C(=O)C(=O)N3CCN(C(=O)c4ccccc4)[C@H](C)C3)c12 [Example 239, (R)-1-benzoyl-2-methyl-4-[(4-methoxy-7-(3-(N,N-dimethylamino)methyl-pyrazol-1-yl)-6-azaindol-3-yl)-oxoacetyl]piperazine]	> 6.00
COc1cnc(-c2nc(-c3ccccc3)n[nH]2)c2[nH]cc(C(=O)C(=O)N3CCN(C(=O)c4ccccc4)[C@H](C)C3)c12 [Example 335]	> 6.00
COc1cnc(-c2nc(-c3ccoc3)n[nH]2)c2[nH]cc(C(=O)C(=O)N3CCN(C(=O)c4ccccc4)[C@H](C)C3)c12 [Example 340]	> 6.00

same assay, conditions: Human immunodeficiency virus 1, HeLa-CD4/CCR5, read-out: EC50 Group from Table 1, Table 4; HeLa CD4 CCR5 cells, single-round luciferase reporter virus

SMILES	pEC50
C[C@@H]1CN(C(=O)c2ccccc2)CCN1C(=O)C(=O)c1c[nH]c2c(-c3ncco3)ccnc12 [Example 126]	> 6.00
CON(C)C(=O)c1ccnc2c(C(=O)C(=O)N3CCN(C(=O)c4ccccc4)C[C@H]3C)c[nH]c12 [Example 57]	> 6.00
CON(C)C(=O)c1cc(Cl)nc2c(C(=O)C(=O)N3CCN(C(=O)c4ccccc4)C[C@H]3C)c[nH]c12 [Example 58, 1-benzoyl-3-(R)-methyl-4-[(5-chloro-(7-(methoxymethylamino)carbonyl)-4-azaindol-3-yl)-oxoacetyl]piperazine]	> 6.00
COc1ccc(-c2ccnc3c(C(=O)C(=O)N4CCN(C(=O)c5ccccc5)C[C@H]4C)c[nH]c23)cc1 [Example 67, 1-benzoyl-3-(R)-methyl-4-[(7-(4-methoxyphenyl)-4-azaindol-3-yl)oxoacetyl]piperazine]	> 6.00
Cc1cc(-c2cc(Cl)nc3c(C(=O)C(=O)N4CCN(C(=O)c5ccccc5)C[C@H]4C)c[nH]c23)[nH]n1 [Example 64, 1-benzoyl-3-(R)-methyl-4-[(5-chloro-7-(3-methyl-pyrazol-5-yl)-4-azaindol-3-yl)-oxoacetyl]piperazine]	> 6.00
Cc1csc(-c2ccnc3c(C(=O)C(=O)N4CCN(C(=O)c5ccccc5)C[C@H]4C)c[nH]c23)c1 [Example 86, 1-benzoyl-3-(R)-methyl-4-[(7-(4-methyl-thiophen-2-yl)-4-azaindol-3-yl)-oxoacetyl]piperazine]	> 6.00
Cc1csc(-c2ccnc3c(C(=O)C(=O)N4CCN(C(=O)c5ccccc5)CC4)c[nH]c23)c1 [Example 134]	> 6.00
Cc1noc(C)c1-c1ccnc2c(C(=O)C(=O)N3CCN(C(=O)c4ccccc4)C[C@H]3C)c[nH]c12 [Example 130]	> 6.00
C[C@@H]1CN(C(=O)c2ccccc2)CCN1C(=O)C(=O)c1c[nH]c2c(-c3cnccn3)ccnc12 [Example 52, 1-benzoyl-3-(R)-methyl-4-[(7-(pyrazin-2-yl)-4-azaindol-3-yl)-oxoacetyl]piperazine]	> 6.00
